The values below come from patent US7829560B2, “1,4-disubstituted naphthalenes as inhibitors of P38 MAP kinase” (Arqule, Inc., priority 2004, dated 2010).

In test [1] the test system is TNFα release from THP-1 cells. The experiment in a line: Inhibition of TNFα release from LPS-stimulated THP-1 cells, ELISA. It is filed as cell-based. The note with it: Homo sapiens, THP-1, THP-1 cells, read-out: [CELL] THP-1, IC50, TNF ALPHA, ELISA. Put shortly:
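Human THP-1 monocytes, 10^6 cells/ml in RPMI with 10% FBS, no serum or 1% HSA, preincubated 30 min at 37 °C with compound (≤0.5% DMSO), then stimulated with 10 μg/ml LPS for 18 h. Supernatant TNFα measured by ELISA; IC50 from non-linear dose-response regression.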
A general note: An ELISA detects its analyte on a solid surface through an enzyme-linked reagent.

The target of test [2] is T1, p38α (Homo sapiens, UniProt Q16539).
T1 construct: p38 MAP Kinases are recombinant human full-length proteins with an amino-terminal GST fusion; GST (N); purchased Upstate Biotechnology Inc; host or cells: E. coli
The experiment in a line: p38 MAP Kinase assay: inhibition of ATF2 phosphorylation, ELISA. The note with it: ATF2 phosphorylation; read-out: [ENZ] P38 ALPHA, IC50, ELISA. The format is biochemical. A digest of the protocol: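 GST-tagged full-length human p38 MAP kinase with GST-ATF2 (aa 19–96; 1.25 μM) and 40 μM ATP in HEPES pH 7.5 buffer, without (Method I) or with (Method II) 1% human serum albumin. Compound pre-incubated 15 min at room temperature; reaction 30 min at 37 °C; ATF2 Thr69 phosphorylation measured by ELISA (A450).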

T1 sequence (Q16539 whole entry, the tested form may be a part): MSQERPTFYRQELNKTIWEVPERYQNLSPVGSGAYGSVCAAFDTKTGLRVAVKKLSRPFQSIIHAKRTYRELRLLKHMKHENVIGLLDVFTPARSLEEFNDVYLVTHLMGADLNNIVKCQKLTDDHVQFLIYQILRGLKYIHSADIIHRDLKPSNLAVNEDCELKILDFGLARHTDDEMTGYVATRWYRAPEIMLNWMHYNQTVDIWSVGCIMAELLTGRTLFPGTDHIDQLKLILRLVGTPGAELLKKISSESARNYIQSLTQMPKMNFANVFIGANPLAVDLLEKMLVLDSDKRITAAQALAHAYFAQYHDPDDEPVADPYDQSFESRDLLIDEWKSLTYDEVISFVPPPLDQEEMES

Regarding `CC1CCCCN1c1cc(F)cc(C(=O)Nc2ccc(OCCN3CCOCC3)c3ccccc23)c1` (stereo not drawn) [Compound B201, 3-Fluoro-5-(2-methylpiperidin-1-yl)-N-[4-(2-morpholin-4-ylethoxy)-1-naphthyl]benzamide], the IC50 – broadly, the concentration needed to halve the response being measured – came to 4.73 µM in test [1] and 0.323 µM in test [2].

Take `O=C(Nc1ccc(OCCN2CCOCC2)c2ccccc12)c1cc(F)cc(N2CCN(c3ccc(F)cc3)CC2)c1` [Compound B203]: the 50% inhibitory concentration (IC50) in test [1] and in test [2] was more than 10 µM each time.

`O=C(Nc1ccc(OCCN2CCOCC2)c2ccccc12)c1cc(F)cc(F)c1` [Compound B204]: the IC50 in test [1] and in test [2] was more than 10 µM in each case.

In the case of `CC1CCCC(C)N1c1cc(F)cc(C(=O)Nc2ccc(OCCN3CCOCC3)c3ccccc23)c1` (stereo not drawn) [Compound B205, 3-(2,6-Dimethylpiperidin-1-yl)-5-fluoro-N-[4-(2-morpholin-4-ylethoxy)-1-naphthyl]benzamide], the IC50 was more than 10 µM in test [1] and 1.68 µM in test [2].

Regarding `O=C(Nc1ccc(OCCN2CCOCC2)c2ccccc12)c1cc(F)cc(N2CCOCC2)c1` [Compound B206, 3-Fluoro-5-morpholin-4-yl-N-[4-(2-morpholin-4-ylethoxy)-1-naphthyl]benzamide], the IC50 in test [1] was 4.23 µM; in test [2] it was 1.02 µM.

Turning to `CC(C)(C)CNc1cc(F)cc(C(=O)Nc2ccc(OCCN3CCOCC3)c3ccccc23)c1` [Compound B209, 3-[(2,2-Dimethylpropyl)amino]-5-fluoro-N-[4-(2-morpholin-4-ylethoxy)-1-naphthyl]benzamide], the values for the half-maximal inhibitory concentration (IC50) in test [1] and in test [2] were more than 10 µM and 0.513 µM, respectively.

As to `CC1CN(c2cc(F)cc(C(=O)Nc3ccc(OCCN4CCOCC4)c4ccccc34)c2)CC(C)O1` (stereo not drawn) [Compound B211], the IC50 in test [1] and in test [2] was more than 10 µM throughout.

With `O=C(Nc1ccc(OCCN2CCOCC2)c2ccccc12)c1cc(F)cc(N2Cc3ccccc3C2)c1` [Compound B212], the half-inhibitory concentration (IC50) in test [1] and in test [2] was more than 10 µM in each case.

As for `O=C(Nc1ccc(OCCN2CCOCC2)c2ccccc12)c1cc(F)cc(N2CCC3CCCCC3C2)c1` (stereo not drawn) [Compound B213], the IC50 in test [1] and in test [2] was more than 10 µM throughout.

For the compound `CC1CCN(c2cc(C(=O)Nc3ccc(OCCN4CCOCC4)c4ccccc34)cc(Cl)n2)CC1` [Compound B218], the half-maximal inhibitory concentration (IC50) is 3.58 µM in test [1] and 0.876 µM in test [2].

Consider `CC1CCC(Oc2cc(F)cc(C(=O)Nc3ccc(OCCN4CCOCC4)c4ccccc34)c2)CC1` (stereo not drawn) [Compound B234, 3-Fluoro-5-[(4-methylcyclohexyl)oxy]-N-[4-(2-morpholin-4-ylethoxy)-1-naphthyl]benzamide], for which the values for the IC50 in test [1] and in test [2] were 3.19 µM and 1.05 µM, respectively.

As for `CC(C)(C)C1CCC(Oc2cc(F)cc(C(=O)Nc3ccc(OCc4ccncc4)c4ccccc34)c2)CC1` (stereo not drawn) [Compound B236], the half-inhibitory concentration (IC50) in test [1] and in test [2] was more than 10 µM each time.

In the case of `O=C(Nc1ccc(CCCN2CCOCC2)c2ccccc12)c1cc(F)cc(N2CCOCC2)c1` [Compound B240, 3-Fluoro-5-morpholin-4-yl-N-[4-(3-morpholin-4-yl-propyl)-naphthalen-1-yl]-benzamide], the IC50 in test [1] and in test [2] was 1.01 µM in each case.

For `O=C(Nc1ccc(NCCN2CCOCC2)c2ccccc12)c1cc(F)cc(N2CCOCC2)c1` [Compound B241], the IC50 is 9.42 µM in test [1] and 8.25 µM in test [2].

In the case of `O=C(Nc1ccc(NCCN2CCOCC2)c2ccccc12)c1cc(F)cc(N2CCCCC2)c1` [Compound B242], the IC50 in test [1] is 10.6 µM; in test [2], 2.03 µM.

Regarding `Cc1cc(COc2ccc(NC(=O)c3cc(F)cc(N4CCC(C)CC4)c3)c3ccccc23)no1` [Compound B243], the half-inhibitory concentration (IC50) in test [1] and in test [2] was more than 10 µM in each case.

For the compound `O=C(Nc1ccc(OCCN2CCOCC2)c2ncccc12)c1cc(F)cc(N2CCOCC2)c1` [Compound B244], the IC50 in test [1] and in test [2] was more than 10 µM throughout.

For the compound `Cc1cc(F)ccc1-c1cccc(C(=O)Nc2ccc(OCCN3CCOCC3)c3ccccc23)c1` [Compound B245], the IC50 in test [1] came to 1.14 µM; in test [2] it was 0.631 µM.
